Literature values as cited in patent publication US20110178167A1, “METHOD FOR INHIBITING ACTIVITY AND/OR EXPRESSION OF MATRIX METALLOPROTEINASE, INHIBITING PHOSPHORYLATION OF MITOGEN-ACTIVATED PROTEIN KINASE, AND/OR PROMOTING EXPRESSION OF COLLAGEN USING TERMINALIA CATAPPA LEAF EXTRACT” (priority 2010, published 2011).

Tested on: matrix metalloproteinase-1
Settings: related art

Compound	expression of matrix metalloproteinase-1
C[C@@H]1CC[C@]2(C(=O)O[C@@H]3O[C@H](CO)[C@@H](O)[C@H](O)[C@H]3O)CC[C@]3(C)C(=CC[C@@H]4[C@@]5(C)CC[C@H](O[C@@H]6OC[C@H](O)[C@H](O)[C@H]6O)C(C)(C)[C@@H]5CC[C@]43C)[C@@H]2[C@]1(C)O [ziyuglycoside-I]	inhibited
O=c1cc(-c2ccc(O)c(-c3c(O)c(O)c(O)c4c(=O)cc(-c5ccc(O)cc5)oc34)c2)oc2cc(O)cc(O)c12 [sumaflavone]	inhibited
